Test system: HCI-002 (organoid from a triple-negative breast cancer xenograft)
Assay: CTG-3D luminescence at 96 h relative to day-0 seeding control (ratio to day 0); higher = more growth / less cytotoxicity; PDxO 3D drug screen, 96 h, CTG-3D normalised to day-0 seeding control.
Conditions: 1 µM; days in culture: 209

Going from `COc1cc2c(Oc3ccc4[nH]c(C)cc4c3F)ncnc2cc1OCCCN1CCCC1` [cediranib] to `Cc1cc(Nc2ncnc3ccc(NC4=NC(C)(C)CO4)cc23)ccc1Oc1ccn2ncnc2c1` [tucatinib], the “CTG-3D luminescence at 96 h” value rises from 1.93 to 2.19.

First: CC(C)n1nc(-c2ccc3oc(N)nc3c2)c2c(N)ncnc21 [sapanisertib]
Second: C=CCn1c(=O)c2cnc(Nc3ccc(N4CCN(C)CC4)cc3)nc2n1-c1cccc(C(C)(C)O)n1 [adavosertib]
The “CTG-3D luminescence at 96 h” value of the first is lower: 0.446 for the first, 1.5 for the second.

First: C[C@H](NC(=O)CCC(F)(F)F)C(=O)N[C@@H]1C(=O)N(CCO)c2ncccc2-c2ccccc21 [crenigacestat]
Second: O=C(/C=C/c1cccnc1)NCCCCC1CCN(C(=O)c2ccccc2)CC1 [FK866]
The “CTG-3D luminescence at 96 h” value of the first is higher: 2.27 for the first, 0.0401 for the second.

Compared with `C[C@]12CC[C@@H]3c4ccc(O)cc4C[C@@H](CCCCCCCCC[S+]([O-])CCCC(F)(F)C(F)(F)F)[C@H]3[C@@H]1CC[C@@H]2O` (stereo partly specified) [fulvestrant], `O=C(c1ccc(F)c(F)c1Nc1ccc(I)cc1F)N1CC(O)([C@@H]2CCCCN2)C1` [cobimetinib] is lower in “CTG-3D luminescence at 96 h” value: 2.28 for the first, 1.43 for the second.

For `CS(=O)(=O)c1ccc(C(=O)Nc2ccc(Cl)c(-c3ccccn3)c2)c(Cl)c1` [vismodegib], the “CTG-3D luminescence at 96 h” value was 2.77.

Same assay, conditions: 1 µM; days in culture: 227

Compared with `COc1cc2c(Oc3ccc4[nH]c(C)cc4c3F)ncnc2cc1OCCCN1CCCC1` [cediranib], `Cc1cc(Nc2ncnc3ccc(NC4=NC(C)(C)CO4)cc23)ccc1Oc1ccn2ncnc2c1` [tucatinib] is lower in “CTG-3D luminescence at 96 h” value: 4.99 for the first, 4.14 for the second.

First: CC(C)n1nc(-c2ccc3oc(N)nc3c2)c2c(N)ncnc21 [sapanisertib]
Second: C=CCn1c(=O)c2cnc(Nc3ccc(N4CCN(C)CC4)cc3)nc2n1-c1cccc(C(C)(C)O)n1 [adavosertib]
The “CTG-3D luminescence at 96 h” value of the first is lower: 0.801 for the first, 2.13 for the second.

First: C[C@H](NC(=O)CCC(F)(F)F)C(=O)N[C@@H]1C(=O)N(CCO)c2ncccc2-c2ccccc21 [crenigacestat]
Second: O=C(/C=C/c1cccnc1)NCCCCC1CCN(C(=O)c2ccccc2)CC1 [FK866]
The “CTG-3D luminescence at 96 h” value of the first is higher: 4.74 for the first, 0.0406 for the second.

Going from `C[C@]12CC[C@@H]3c4ccc(O)cc4C[C@@H](CCCCCCCCC[S+]([O-])CCCC(F)(F)C(F)(F)F)[C@H]3[C@@H]1CC[C@@H]2O` (stereo partly specified) [fulvestrant] to `O=C(c1ccc(F)c(F)c1Nc1ccc(I)cc1F)N1CC(O)([C@@H]2CCCCN2)C1` [cobimetinib], the “CTG-3D luminescence at 96 h” value falls from 4.77 to 2.78.

With `CS(=O)(=O)c1ccc(C(=O)Nc2ccc(Cl)c(-c3ccccn3)c2)c(Cl)c1` [vismodegib] the “CTG-3D luminescence at 96 h” value was 3.49.

Same assay, conditions: 10 µM; days in culture: 62

Compared with `COc1cc2c(Oc3ccc4[nH]c(C)cc4c3F)ncnc2cc1OCCCN1CCCC1` [cediranib], `Cc1cc(Nc2ncnc3ccc(NC4=NC(C)(C)CO4)cc23)ccc1Oc1ccn2ncnc2c1` [tucatinib] is higher in “CTG-3D luminescence at 96 h” value: 0.0315 for the first, 2.44 for the second.

First: CC(C)n1nc(-c2ccc3oc(N)nc3c2)c2c(N)ncnc21 [sapanisertib]
Second: C=CCn1c(=O)c2cnc(Nc3ccc(N4CCN(C)CC4)cc3)nc2n1-c1cccc(C(C)(C)O)n1 [adavosertib]
The “CTG-3D luminescence at 96 h” value of the first is higher: 0.418 for the first, 0.225 for the second.

Compared with `C[C@H](NC(=O)CCC(F)(F)F)C(=O)N[C@@H]1C(=O)N(CCO)c2ncccc2-c2ccccc21` [crenigacestat], `O=C(/C=C/c1cccnc1)NCCCCC1CCN(C(=O)c2ccccc2)CC1` [FK866] is lower in “CTG-3D luminescence at 96 h” value: 2.72 for the first, 0.014 for the second.

Compared with `C[C@]12CC[C@@H]3c4ccc(O)cc4C[C@@H](CCCCCCCCC[S+]([O-])CCCC(F)(F)C(F)(F)F)[C@H]3[C@@H]1CC[C@@H]2O` (stereo partly specified) [fulvestrant], `O=C(c1ccc(F)c(F)c1Nc1ccc(I)cc1F)N1CC(O)([C@@H]2CCCCN2)C1` [cobimetinib] is lower in “CTG-3D luminescence at 96 h” value: 3.11 for the first, 0.777 for the second.

In the case of `CS(=O)(=O)c1ccc(C(=O)Nc2ccc(Cl)c(-c3ccccn3)c2)c(Cl)c1` [vismodegib], the “CTG-3D luminescence at 96 h” value is reported as 2.96.

Same assay, conditions: 10 µM; days in culture: 82

First: COc1cc2c(Oc3ccc4[nH]c(C)cc4c3F)ncnc2cc1OCCCN1CCCC1 [cediranib]
Second: Cc1cc(Nc2ncnc3ccc(NC4=NC(C)(C)CO4)cc23)ccc1Oc1ccn2ncnc2c1 [tucatinib]
The “CTG-3D luminescence at 96 h” value of the first is lower: 0.0265 for the first, 1.59 for the second.

Going from `CC(C)n1nc(-c2ccc3oc(N)nc3c2)c2c(N)ncnc21` [sapanisertib] to `C=CCn1c(=O)c2cnc(Nc3ccc(N4CCN(C)CC4)cc3)nc2n1-c1cccc(C(C)(C)O)n1` [adavosertib], the “CTG-3D luminescence at 96 h” value falls from 0.403 to 0.198.

First: C[C@H](NC(=O)CCC(F)(F)F)C(=O)N[C@@H]1C(=O)N(CCO)c2ncccc2-c2ccccc21 [crenigacestat]
Second: O=C(/C=C/c1cccnc1)NCCCCC1CCN(C(=O)c2ccccc2)CC1 [FK866]
The “CTG-3D luminescence at 96 h” value of the first is higher: 2.69 for the first, 0.0327 for the second.

Going from `C[C@]12CC[C@@H]3c4ccc(O)cc4C[C@@H](CCCCCCCCC[S+]([O-])CCCC(F)(F)C(F)(F)F)[C@H]3[C@@H]1CC[C@@H]2O` (stereo partly specified) [fulvestrant] to `O=C(c1ccc(F)c(F)c1Nc1ccc(I)cc1F)N1CC(O)([C@@H]2CCCCN2)C1` [cobimetinib], the “CTG-3D luminescence at 96 h” value falls from 2.61 to 0.519.

`CS(=O)(=O)c1ccc(C(=O)Nc2ccc(Cl)c(-c3ccccn3)c2)c(Cl)c1` [vismodegib] was tested, and the “CTG-3D luminescence at 96 h” value was 2.14.
